The source of these data is patent US8822449B2, “Substituted aminoindanes and analogs thereof, and the pharmaceutical use thereof” (Sanofi, priority 2008, dated 2014).

Read-outs that look alike come from different tables or passages of the source.

In the experiment the target is T1, sodium-proton exchanger of subtype 3 (NHE3) (Homo sapiens, UniProt P48764).
T1 construct: expressed in transfected cells
T1 sequence (P48764 26-834): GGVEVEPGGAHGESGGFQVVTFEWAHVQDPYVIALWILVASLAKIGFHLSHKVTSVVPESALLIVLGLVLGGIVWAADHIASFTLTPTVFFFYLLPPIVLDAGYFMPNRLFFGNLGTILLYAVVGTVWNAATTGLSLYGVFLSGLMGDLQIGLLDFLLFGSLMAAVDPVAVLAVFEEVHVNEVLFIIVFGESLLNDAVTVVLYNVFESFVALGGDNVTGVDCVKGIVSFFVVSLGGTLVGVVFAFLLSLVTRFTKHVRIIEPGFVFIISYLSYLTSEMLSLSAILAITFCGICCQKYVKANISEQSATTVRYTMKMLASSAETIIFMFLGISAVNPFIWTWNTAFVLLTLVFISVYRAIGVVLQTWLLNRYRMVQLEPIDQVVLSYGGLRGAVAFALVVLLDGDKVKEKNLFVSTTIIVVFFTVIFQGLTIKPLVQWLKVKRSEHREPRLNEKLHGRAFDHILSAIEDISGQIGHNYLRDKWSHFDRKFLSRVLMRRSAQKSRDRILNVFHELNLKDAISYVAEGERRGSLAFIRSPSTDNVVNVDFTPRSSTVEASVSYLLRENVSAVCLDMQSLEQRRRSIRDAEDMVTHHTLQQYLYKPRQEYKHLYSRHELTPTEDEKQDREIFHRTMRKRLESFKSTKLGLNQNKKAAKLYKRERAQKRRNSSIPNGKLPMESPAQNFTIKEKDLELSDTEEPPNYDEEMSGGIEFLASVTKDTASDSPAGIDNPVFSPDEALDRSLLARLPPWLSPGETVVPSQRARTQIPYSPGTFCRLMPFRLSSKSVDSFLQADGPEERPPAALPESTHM
Nature of the experiment: Recovery of intracellular pH (pHi) after acidification in LAP1 cells stably expressing NHE3 (BCECF fluorescence, FLIPR). To be noted: LAP1 cells stably expressing NHE3, pH recovery after acidification, range 1 is % inhibition at 10 μM. It is filed as cell-based.

Where [1] appears, read: read-out: Activity range (inhibitory effect on NHE3).

Description: In this assay, the recovery of the intracellular pH (pHi) of LAP1 cells which stably express the sodium-proton exchanger of subtype 3 (NHE3) after acidification was determined. The recovery occurs even under bicarbonate-free conditions with functional NHE3. To this end, the pHi was determined using the pH-sensitive fluorescent dye BCECF (Molecular Probes, Eugene, Oreg., USA, employing the precursors BCECF-AM). The cells were initially incubated with BCECF (5 μM BCECF-AM) in NH4Cl buffer (NH4Cl buffer: 115 mM cholineCl, 20 mM NH4Cl, 5 mM KCl, 1 mM CaCl2, 1 mM MgCl2, 20 mM Hepes, 5 mM glucose, a pH of 7.4 was adjusted with 1 M KOH). The intracellular acidification was induced by washing the cells incubated in NH4Cl buffer with NH4Cl-free buffer (133.8 mM choline chloride, 4.7 mM KCl, 1.25 mM CaCl2, 1.25 mM MgCl2, 0.97 mM K2HPO4, 0.23 mM KH2PO4, 5 mM Hepes, 5 mM glucose, a pH of 7.4 was adjusted with 1 M KOH). After the washing step, 90 μl of the NH4Cl-free buffer were left on the cells. The pH recovery was started by adding 90 μl of Na^+-containing buffer (133.8 mM NaCl, 4.7 mM KCl, 1.25 mM CaCl2, 1.25 mM MgCl2, 0.97 mM Na2HPO4, 0.23 mM NaH2PO4, 10 mM Hepes, 5 mM glucose, a pH of 7.4 was adjusted with 1 M NaOH) in a measuring instrument (FLIPR, “Fluorometric Imaging Plate Reader”, Molecular Devices, Sunnyvale, Calif., USA). The BCECF fluorescence was determined with an excitation wavelength of 498 nm and the FLIPR emission filter 1 (bandpass from 510 to 570 nm). The subsequent changes in fluorescence as a measure of pH recovery were recorded for two minutes. To calculate the NHE3-inhibitory power of the tested substances, the cells were initially investigated in buffers with which complete or absolutely no pH recovery took place. For complete pH recovery (100%), the cells were incubated in Na^+-containing buffer (see above), and to determine the 0% value were incubated in Na^+-free buffer (see above). The substances to be tested were made up in Na^+-containing buffer. The recovery of the intracellular pH at each tested concentration of a substance was expressed as percent of the maximum recovery.
The IC50 of the respective substance for NHE3 was calculated from the percentages of pH recovery using the program XLFit (idbs, Surrey, UK).

For the compound `Cc1nnc(C)n1-c1ccc(O[C@H]2c3cc(Cl)cc(Cl)c3C[C@@H]2N2CCOCC2)c(F)c1` [Example 564, 4-{trans-(1S,2S)-4,6-dichloro-1-[4-(3,5-dimethyl-[1,2,4]triazol-4-yl)-2-fluorophenoxy]indan-2-yl}morpholine], the IC50 under setting [1] is less than 1 µM.
As for `c1ccc2c(c1)C[C@@H](N1C[C@H]3CNC[C@H]3C1)[C@@H]2Oc1ccc2cc[nH]c2c1` (racemic) [Example 587, 6-[rac-trans-(1,2)-2-(Hexahydropyrrolo[3,4-c]pyrrol-2-yl)indan-1-yloxy]-1H-indole], the IC50 under setting [1] lay in the range of 1 to 10 µM.
Regarding `FC(F)(F)CCN[C@@H]1CCCN([C@H]2Cc3c(Cl)cc(Cl)cc3[C@@H]2Oc2ccc(-n3cncn3)cc2)C1` [Example 221, {(R)-1-[trans-(1S,2S)-4,6-dichloro-1-(4-[1,2,4]triazol-1-ylphenoxy)indan-2-yl]piperidin-3-yl}-(3,3,3-trifluoropropyl)amine], the IC50 under setting [1] is less than 1 µM.
For `O=C1OCCN1c1cccc(O[C@H]2c3ccccc3C[C@@H]2N2CCCC2)c1` (racemic) [Example 409, 3-[3-(rac-trans-(1,2)-2-pyrrolidin-1-ylindan-1-yloxy)phenyl]oxazolidin-2-one], the IC50 under setting [1] is less than 1 µM.
The same measure, in the same setting: under `CS(=O)(=O)c1ccc(O[C@H]2c3cccc(F)c3C[C@@H]2N2CCCC2)cc1` (racemic) [Example 285, 1-[rac-trans-(1,2)-4-fluoro-1-(4-methanesulfonylphenoxy)indan-2-yl]pyrrolidine] stands 1 to 10 µM.
Same read-out and setting: the value for `O=C1CCC(=O)N1c1cccc(O[C@H]2c3ccccc3C[C@@H]2N2CCCC2)c1` (racemic) [Example 256, 1-[3-(rac-trans-(1,2)-2-pyrrolidin-1-ylindan-1-yloxy)phenyl]pyrrolidine-2,5-dione] was 1 to 10 µM.
Turning to `CCC(CC)N[C@@H]1Cc2ccccc2[C@H]1Oc1ccc(S(C)(=O)=O)cc1` (racemic) [Example 723, (1-Ethyl-propyl)-[rac-trans-(1,2)-1-(4-methanesulfonyl-phenoxy)-indan-2-yl]-amine], the inhibition at 10 µM under setting [1] is 20 to 50%.
As for `NS(=O)(=O)c1ccc(O[C@H]2c3ccccc3C[C@@H]2N2CCCCCC2)cc1` (racemic) [Example 464, 4-(rac-trans-(1,2)-2-azepan-1-ylindan-1-yloxy)benzenesulfonamide], the IC50 under setting [1] was less than 1 µM.
As to `Cc1nncn1-c1ccc(O[C@H]2c3ccccc3C[C@@H]2N2CCCC2)cc1` (racemic) [Example 453, 3-methyl-4-[4-(rac-trans-(1,2)-2-pyrrolidin-1-ylindan-1-yloxy)phenyl]-4H-[1,2,4]triazole], under “Activity range (inhibitory effect on NHE3)”, the IC50 is less than 1 µM.
Turning to `Cc1ccc(O[C@@H]2c3ccccc3C[C@H]2N2CCC(CN)CC2)c(Br)c1` (racemic) [Example 603, C-{1-[rac-trans-(1,2)-1-(2-bromo-4-methylphenoxy)indan-2-yl]piperidin-4-yl}methylamine], the IC50 under setting [1] fell in the range of 1 to 10 µM.
Take `N#Cc1ccc(O[C@H]2c3cc(Cl)cc(Cl)c3C[C@@H]2N2CCC2)c(F)c1` [Example 454, 4-((1S,2S)-2-azetidin-1-yl-4,6-dichloroindan-1-yloxy)-3-fluorobenzonitrile]: the inhibition at 10 µM under setting [1] lay in the range of 20 to 50%.
For `CS(=O)(=O)c1ccc(OC2c3ccccc3CC2N2CCC[C@@H](N)C2)c(Cl)c1` (mixture of isomers) [Example 37, (R)-1-[rac-trans-(1,2)-1-(2-chloro-4-methanesulfonylphenoxy)indan-2-yl]piperidin-3-ylamine], the IC50 under setting [1] is less than 1 µM.
Regarding `COCCc1ccc(O[C@H]2c3ccccc3CC[C@@H]2N2CCC[C@@H](N)C2)cc1` (racemic) [Example 115, (R)-1-{rac-trans-(1,2)-1-[4-(2-methoxyethyl)phenoxy]-1,2,3,4-tetrahydronaphthalen-2-yl}piperidin-3-ylamine], the inhibition at 10 µM under setting [1] was in the range of 20 to 50%.
For the compound `NCC1CCN([C@@H]2Cc3ccccc3[C@H]2Oc2cccc(N3CCNCC3)c2)CC1` (racemic) [Example 616, C-{1-[rac-trans-(1,2)-1-(3-piperazin-1-ylphenoxy)indan-2-yl]piperidin-4-yl}methylamine], under setting [1], the IC50 fell in the range of 1 to 10 µM.
Same read-out and setting: the value for `N[C@H]1CCCN([C@H]2CCc3ccccc3[C@@H]2Oc2ccc(F)c3cccnc23)C1` (racemic) [Example 188, (S)-1-[rac-trans-(1,2)-1-(5-fluoroquinolin-8-yloxy)-1,2,3,4-tetrahydronaphthalen-2-yl]piperidin-3-ylamine] was 1 to 10 µM.
On to `COc1ccc(O[C@H]2c3ccccc3CC[C@@H]2N2CCC[C@@H](N)C2)c(F)c1` (racemic) [Example 42, (R)-1-[rac-trans-(1,2)-1-(2-fluoro-4-methoxyphenoxy)-1,2,3,4-tetrahydronaphthalen-2-yl]piperidin-3-ylamine], for which the inhibition at 10 µM under setting [1] is 20 to 50%.
In the case of `CS(=O)(=O)c1ccc(O[C@H]2c3cc(Cl)cc(Cl)c3C[C@@H]2N2CCC(S(C)(=O)=O)C2)cc1` (mixture of isomers) [Example 249, 1-[(1S,2S)-4,6-dichloro-1-(4-methanesulfonylphenoxy)indan-2-yl]-3-methanesulfonylpyrrolidine], the inhibition at 10 µM under setting [1] lay in the range of 20 to 50%.
For `NS(=O)(=O)c1ccc(O[C@H]2c3cc(Cl)cc(Cl)c3C[C@@H]2NC2CCCC2)c(F)c1` [Example 748, 4-(trans-(1S,2S)-4,6-Dichloro-2-cyclopentylamino-indan-1-yloxy)-3-fluoro-benzenesulfonamide], the IC50 under setting [1] fell in the range of 1 to 10 µM.
`Cc1ccc(O[C@H]2c3ccccc3CC[C@@H]2N2CCC[C@H](N)C2)cc1Cl` (racemic) [Example 161, (S)-1-[rac-trans-(1,2)-1-(3-chloro-4-methylphenoxy)-1,2,3,4-tetrahydronaphthalen-2-yl]piperidin-3-ylamine]: the inhibition at 10 µM under setting [1] was 20 to 50%.
For the compound `CC(=O)Nc1cccc(O[C@H]2c3cc(Cl)cc(Cl)c3C[C@@H]2N2CC[C@@H](CO)C2)c1` [Example 695, N-{3-[trans-(1S,2S)-4,6-dichloro-2-((R)-3-hydroxymethylpyrrolidin-1-yl)indan-1-yloxy]phenyl}acetamide], the IC50 under setting [1] fell in the range of 1 to 10 µM.
On to `N#Cc1ccc(O[C@@H]2c3ccccc3C[C@H]2N2CCC(CN)C2)c(Cl)c1` (mixture of isomers) [Example 541, 4-[rac-trans-(1,2)-2-(3-aminomethylpyrrolidin-1-yl)indan-1-yloxy]-3-chlorobenzonitrile], for which the IC50 under setting [1] fell in the range of 1 to 10 µM.
As to `CS(=O)(=O)c1ccc(O[C@H]2c3cc(Cl)cc(Cl)c3C[C@@H]2N2CCCN(CCO)CC2)cc1` [Example 385, 2-{4-[trans-(1S,2S)-4,6-dichloro-1-(4-methanesulfonylphenoxy)indan-2-yl]-[1,4]diazepan-1-yl}-ethanol], the IC50 under setting [1] is less than 1 µM.
For the compound `CN(C)S(=O)(=O)c1ccc(N[C@H]2c3cc(Cl)cc(Cl)c3C[C@@H]2N2CC[C@@H](O)C2)cc1` [Example 481, 4-[(1S,2S)-4,6-dichloro-2-((R)-3-hydroxypyrrolidin-1-yl)indan-1-ylamino]-N,N-dimethylbenzenesulfonamide], under setting [1], the IC50 was in the range of 1 to 10 µM.
With `N[C@H]1CCCN([C@H]2CCc3ccccc3[C@@H]2Oc2ccc3oc(=O)sc3c2)C1` (racemic) [Example 580, 5-[rac-trans-(1,2)-2-((S)-3-aminopiperidin-1-yl)-1,2,3,4-tetrahydronaphthalen-1-yloxy]benzo[1,3]oxathiol-2-one], the inhibition at 10 µM under setting [1] is 20 to 50%.
As to `N[C@@H]1CCCN([C@H]2CCc3ccccc3[C@@H]2Oc2ccc(Br)cc2-c2cc[nH]n2)C1` (racemic) [Example 117, (R)-1-{rac-trans-(1,2)-1-[4-bromo-2-(1H-pyrazol-3-yl)phenoxy]-1,2,3,4-tetrahydronaphthalen-2-yl}piperidin-3-ylamine], the IC50 under setting [1] lay within 1 to 10 µM.
Still for that read-out and setting: under `Cc1nnc(C)n1-c1ccc(O[C@H]2c3cc(Cl)ccc3C[C@@H]2N2CCCC2)c(F)c1` [Example 501, 4-[4-(trans-(1S,2S)-6-chloro-2-pyrrolidin-1-ylindan-1-yloxy)-3-fluorophenyl]-3,5-dimethyl-4H-[1,2,4]triazole] stands less than 1 µM.
Take `N#CCc1cccc(O[C@H]2c3ccccc3CC[C@@H]2N2CCC[C@@H](N)C2)c1` (racemic) [Example 230, {3-[rac-trans-(1,2)-2-((R)-3-aminopiperidin-1-yl)-1,2,3,4-tetrahydronaphthalen-1-yloxy]phenyl}acetonitrile]: the inhibition at 10 µM under setting [1] fell in the range of 20 to 50%.
For the compound `COCCN1CCCN([C@H]2Cc3c(Cl)cc(Cl)cc3[C@@H]2Oc2ccc(-c3c(C)noc3C)cc2)CC1` [Example 350, 1-{trans-(1S,2S)-4,6-dichloro-1-[4-(3,5-dimethylisoxazol-4-yl)phenoxy]indan-2-yl}-4-(2-methoxyethyl)-[1,4]diazepane], under setting [1], the IC50 lay in the range of 1 to 10 µM.
With `Cc1nnc(C)n1-c1ccc(O[C@H]2c3ccccc3C[C@@H]2N2CCCC2)c(C(F)(F)F)c1` [Example 406, 3,5-dimethyl-4-[4-(trans-(1S,2S)-2-pyrrolidin-1-ylindan-1-yloxy)-3-trifluoromethylphenyl]-4H-[1,2,4]triazole], the IC50 under setting [1] was less than 1 µM.
